How the values were obtained:
Type in all cases: cell-based
B-lymphocytes [1] = assay: Human primary leucocyte viability: B-lymphocytes; details: 3 μM
Experimental: The effects of the reference compound (ABD735) on the viability of neutrophils, monocytes, CD4+ and CD8+ T-cells and B-lymphocytes was assessed under both resting and stimulated conditions. Resting conditions were used to assess likely effects on normal cells found in human blood, and stimulated conditions were used to assess the effects of the compound under disease conditions.
(§1) Effects on cell viability were assessed using flow cytometry. Flow cytometry is a laser-based, biophysical technology employed in cell counting, cell sorting, and biomarker detection, by suspending cells in a stream of fluid and passing them by an electronic detection apparatus. It allows simultaneous multi-parametric analysis of the physical and chemical characteristics of up to thousands of particles per second. The sorting of cells using flow cytometry requires the use of specific cell markers. To quantify cell numbers, counting beads are used as an internal standard. […] In addition, for B- and T-lymphocytes, cell proliferation was measured using a dye known as Cell Proliferation Dye (eFluor® 450). eFluor® 450 is an organic dye which can be conjugated to cell-specific markers. […]
(§2) The average results (n=3) for the reference compound (ABD735) were expressed as a fold change versus the average control value. […]

B-lymphocytes [2] = assay: Human primary leucocyte proliferation: B-lymphocytes; details: 3 μM
Experimental: as §1, with “standard. Counting beads are a calibrated suspension of microbeads which are added to a known volume of sample so the sample volume per bead is known.” for “standard.”
PBMCs (peripheral blood mononuclear cells) were collected from healthy donors (all female) and isolated by centrifugation on a layer of Ficoll Paque (GE Healthcare, UK). […] Following incubation, the cells were stained with anti-human CD19, a marker of B-lymphocytes, before being analysed on a flow cytometer. […]
as §2

CD4+ T-lymphocytes = assay: Human primary leucocyte proliferation: CD4+ T-lymphocytes; details: 3 μM, 5 days
Experimental: as §1, with “standard. Counting beads are a calibrated suspension of microbeads which are added to a known volume of sample so the sample volume per bead is known.” for “standard.”
PBMCs (peripheral blood mononuclear cells) were collected from healthy donors (all female) and isolated by centrifugation on a layer of Ficoll Paque (GE Healthcare, UK). […] Following incubation, the cells were stained with either anti-human CD8 or CD4 before being analysed on a flow cytometer. […]
as §2

SMILES: Cc1cc(S(=O)(=O)N[C@H]2CC[C@H](O)CC2)ccc1-c1ccc(F)cc1F [ABD735]
- Fold change in viability (B-lymphocytes [1]; SAC/IL-2, 48 hours): 1.1
- Fold change in viability (B-lymphocytes [1]; no stimulation, 48 hours): 0.9
- Fold change in proliferation (B-lymphocytes [2]; SAC/IL-2, 5 days): 0.6
- Fold change in proliferation (B-lymphocytes [2]; no stimulation, 5 days): 0.9
- Fold change in proliferation (CD4+ T-lymphocytes; no stimulation): 1
- Fold change in proliferation (CD4+ T-lymphocytes; phytohaemagglutinin): 0.6
